# Experimental data published in the NIST ThermoML archive (doi:10.1021/je800110r).
# Where “and” joins values, the source holds several entries; their conditions need not be identical. Identical values can stand only once. Numbers after ± are expanded uncertainties.
# Conditions: Liquid, Vibrating tube method
smiles,measurement,setting,value
CCCCCCCCCC [decane],mass density,"303.16 K, 24314 kPa",740.3 ± 2 kg/m3
same,mass density,"303.16 K, 24549 kPa",740.5 ± 2 kg/m3
same,mass density,"303.16 K, 24602 kPa",740.4 ± 2 kg/m3
same,mass density,"303.16 K, 24630 kPa",740.5 ± 2 kg/m3
same,mass density,"303.16 K, 24682 kPa",740.5 ± 2.1 kg/m3
same,mass density,"303.16 K, 24710 kPa",740.6 ± 2.1 kg/m3
same,mass density,"303.16 K, 24755 kPa",740.6 ± 2.1 kg/m3
same,mass density,"303.16 K, 24776 kPa",740.5 ± 2.1 kg/m3
same,mass density,"303.16 K, 25088 kPa",740.7 ± 2.1 kg/m3
same,mass density,"303.16 K, 25114 kPa",740.9 ± 2.1 kg/m3
same,mass density,"303.16 K, 25147 kPa",740.9 ± 2.1 kg/m3
same,mass density,"303.16 K, 25173 kPa",740.9 ± 2.1 kg/m3
same,mass density,"303.16 K, 25208 kPa",740.9 ± 2.1 kg/m3
same,mass density,"303.16 K, 25234 kPa",740.9 ± 2.1 kg/m3
same,mass density,"303.16 K, 25263 kPa",740.9 ± 2.1 kg/m3
same,mass density,"303.16 K, 25293 kPa",741 ± 2.1 kg/m3
same,mass density,"303.16 K, 25324 kPa",740.9 ± 2.1 kg/m3
same,mass density,"303.16 K, 25354 kPa",741.1 ± 2.1 kg/m3
same,mass density,"303.16 K, 25385 kPa",741.1 ± 2.1 kg/m3
same,mass density,"303.16 K, 25420 kPa",741.1 ± 2.1 kg/m3
same,mass density,"303.16 K, 25450 kPa",741 ± 2.1 kg/m3
same,mass density,"303.16 K, 25481 kPa",741.1 ± 2.1 kg/m3
same,mass density,"303.16 K, 25524 kPa",741.1 ± 2.1 kg/m3
same,mass density,"303.16 K, 25559 kPa",741.1 ± 2.1 kg/m3
same,mass density,"303.16 K, 25586 kPa",741.1 ± 2.1 kg/m3
same,mass density,"303.16 K, 25617 kPa",741.1 ± 2.1 kg/m3
same,mass density,"303.16 K, 25802 kPa",741.3 ± 2.1 kg/m3
same,mass density,"303.17 K, 10063 kPa",730.2 ± 2 kg/m3
same,mass density,"303.17 K, 10074 kPa",730.3 ± 2 kg/m3
same,mass density,"313.14 K, 1292 kPa",715.7 ± 2 kg/m3
same,mass density,"313.14 K, 1332 kPa",715.8 ± 2 kg/m3
same,mass density,"313.14 K, 1362 kPa",715.8 ± 2 kg/m3
same,mass density,"313.14 K, 1410 kPa",715.8 ± 2 kg/m3
same,mass density,"313.14 K, 1449 kPa",715.7 ± 2 kg/m3
same,mass density,"313.14 K, 1483 kPa",715.9 ± 2 kg/m3
same,mass density,"313.14 K, 1531 kPa",715.8 ± 2 kg/m3
same,mass density,"313.14 K, 1584 kPa",715.9 ± 2 kg/m3
same,mass density,"313.14 K, 1629 kPa",716 ± 2 kg/m3
same,mass density,"313.14 K, 1669 kPa",716 ± 2 kg/m3
same,mass density,"313.14 K, 1710 kPa",716.1 ± 2 kg/m3
same,mass density,"313.14 K, 1760 kPa",716.1 ± 2 kg/m3
same,mass density,"313.14 K, 1825 kPa",716.1 ± 2 kg/m3
same,mass density,"313.14 K, 1889 kPa",716.2 ± 2 kg/m3
same,mass density,"313.14 K, 1951 kPa",716.3 ± 2 kg/m3
same,mass density,"313.14 K, 2000 kPa",716.3 ± 2 kg/m3
same,mass density,"313.14 K, 2044 kPa",716.3 ± 2 kg/m3
same,mass density,"313.14 K, 2096 kPa",716.3 ± 2 kg/m3
same,mass density,"313.14 K, 2138 kPa",716.4 ± 2 kg/m3
same,mass density,"313.14 K, 2175 kPa",716.4 ± 2 kg/m3
same,mass density,"313.14 K, 2217 kPa",716.4 ± 2 kg/m3
same,mass density,"313.14 K, 2260 kPa",716.5 ± 2 kg/m3
same,mass density,"313.14 K, 2304 kPa",716.5 ± 2 kg/m3
same,mass density,"313.14 K, 2364 kPa",716.6 ± 2 kg/m3
same,mass density,"313.14 K, 2419 kPa",716.7 ± 2 kg/m3
same,mass density,"313.14 K, 2474 kPa",716.7 ± 2 kg/m3
same,mass density,"313.14 K, 2523 kPa",716.8 ± 2 kg/m3
same,mass density,"313.14 K, 2591 kPa",716.7 ± 2 kg/m3
same,mass density,"313.14 K, 2653 kPa",716.8 ± 2 kg/m3
same,mass density,"313.14 K, 2699 kPa",716.8 ± 2 kg/m3
same,mass density,"313.14 K, 2782 kPa",717 ± 2 kg/m3
same,mass density,"313.14 K, 2826 kPa",717.1 ± 2 kg/m3
same,mass density,"313.14 K, 2854 kPa",717 ± 2 kg/m3
same,mass density,"313.14 K, 2900 kPa",716.9 ± 2 kg/m3
same,mass density,"313.14 K, 2941 kPa",717.2 ± 2 kg/m3
same,mass density,"313.14 K, 2970 kPa",717 ± 2 kg/m3
same,mass density,"313.14 K, 3000 kPa",717.1 ± 2 kg/m3
same,mass density,"313.14 K, 3048 kPa",717.2 ± 2 kg/m3
same,mass density,"313.14 K, 3086 kPa",717.2 ± 2 kg/m3
same,mass density,"313.14 K, 3137 kPa",717.3 ± 2 kg/m3
same,mass density,"313.14 K, 3192 kPa",717.3 ± 2 kg/m3
same,mass density,"313.14 K, 3234 kPa",717.4 ± 2 kg/m3
same,mass density,"313.14 K, 3277 kPa",717.4 ± 2 kg/m3
same,mass density,"313.14 K, 3305 kPa",717.4 ± 2 kg/m3
same,mass density,"313.14 K, 3306 kPa",717.5 ± 2 kg/m3
same,mass density,"313.14 K, 3307 kPa",717.5 ± 2 kg/m3
same,mass density,"313.14 K, 3322 kPa",717.5 ± 2 kg/m3
same,mass density,"313.14 K, 3343 kPa",717.4 ± 2 kg/m3
same,mass density,"313.14 K, 3360 kPa",717.4 ± 2 kg/m3
same,mass density,"313.14 K, 3378 kPa",717.5 ± 2 kg/m3
same,mass density,"313.14 K, 3404 kPa",717.4 ± 2 kg/m3
same,mass density,"313.14 K, 3422 kPa",717.5 ± 2 kg/m3
same,mass density,"313.14 K, 3447 kPa",717.5 ± 2 kg/m3
same,mass density,"313.14 K, 3468 kPa",717.6 ± 2 kg/m3
same,mass density,"313.14 K, 3499 kPa",717.6 ± 2 kg/m3
same,mass density,"313.14 K, 3518 kPa",717.6 ± 2 kg/m3
same,mass density,"313.14 K, 3549 kPa",717.7 ± 2 kg/m3
same,mass density,"313.14 K, 3576 kPa",717.6 ± 2 kg/m3
same,mass density,"313.14 K, 3598 kPa",717.8 ± 2 kg/m3
same,mass density,"313.14 K, 3629 kPa",717.7 ± 2 kg/m3
same,mass density,"313.14 K, 3654 kPa",717.7 ± 2 kg/m3
same,mass density,"313.14 K, 3674 kPa",717.8 ± 2 kg/m3
same,mass density,"313.14 K, 3693 kPa",717.8 ± 2 kg/m3
same,mass density,"313.14 K, 3713 kPa",717.8 ± 2 kg/m3
same,mass density,"313.14 K, 3739 kPa",717.8 ± 2 kg/m3
same,mass density,"313.14 K, 3768 kPa",717.8 ± 2 kg/m3
same,mass density,"313.14 K, 3821 kPa",717.9 ± 2 kg/m3
same,mass density,"313.14 K, 3843 kPa",718 ± 2 kg/m3
same,mass density,"313.14 K, 3850 kPa",717.8 ± 2 kg/m3
same,mass density,"313.14 K, 3853 kPa",717.9 ± 2 kg/m3
same,mass density,"313.14 K, 3854 kPa",717.9 ± 2 kg/m3
same,mass density,"313.14 K, 3856 kPa",717.8 ± 2 kg/m3
same,mass density,"313.14 K, 3858 kPa",717.9 ± 2 kg/m3
same,mass density,"313.14 K, 3860 kPa",717.9 ± 2 kg/m3
same,mass density,"313.14 K, 3862 kPa",717.9 ± 2 kg/m3
same,mass density,"313.14 K, 3864 kPa",717.9 ± 2 kg/m3
same,mass density,"313.14 K, 3865 kPa",717.9 ± 2 kg/m3 and 717.8 ± 2 kg/m3
same,mass density,"313.14 K, 3876 kPa",717.9 ± 2 kg/m3
same,mass density,"313.14 K, 3895 kPa",718 ± 2 kg/m3
same,mass density,"313.14 K, 3915 kPa",718 ± 2 kg/m3
same,mass density,"313.14 K, 3933 kPa",718.1 ± 2 kg/m3
same,mass density,"313.14 K, 3949 kPa",717.9 ± 2 kg/m3
same,mass density,"313.14 K, 3970 kPa",718 ± 2 kg/m3
same,mass density,"313.14 K, 3989 kPa",718.1 ± 2 kg/m3
same,mass density,"313.14 K, 4003 kPa",718.1 ± 2 kg/m3
same,mass density,"313.14 K, 4028 kPa",718.1 ± 2 kg/m3
same,mass density,"313.14 K, 4048 kPa",718 ± 2 kg/m3
same,mass density,"313.14 K, 4070 kPa",718.1 ± 2 kg/m3
same,mass density,"313.14 K, 4098 kPa",718.1 ± 2 kg/m3
same,mass density,"313.14 K, 4121 kPa",718.1 ± 2 kg/m3
same,mass density,"313.14 K, 4141 kPa",718.2 ± 2 kg/m3
same,mass density,"313.14 K, 4159 kPa",718.2 ± 2 kg/m3
same,mass density,"313.14 K, 4186 kPa",718.2 ± 2 kg/m3
same,mass density,"313.14 K, 4203 kPa",718.3 ± 2 kg/m3
same,mass density,"313.14 K, 4224 kPa",718.3 ± 2 kg/m3
same,mass density,"313.14 K, 4245 kPa",718.3 ± 2 kg/m3
same,mass density,"313.14 K, 4267 kPa",718.3 ± 2 kg/m3
same,mass density,"313.14 K, 4287 kPa",718.2 ± 2 kg/m3
same,mass density,"313.14 K, 4309 kPa",718.3 ± 2 kg/m3
same,mass density,"313.14 K, 4328 kPa",718.3 ± 2 kg/m3
same,mass density,"313.14 K, 4357 kPa",718.4 ± 2 kg/m3
same,mass density,"313.14 K, 4386 kPa",718.4 ± 2 kg/m3
same,mass density,"313.14 K, 4407 kPa",718.4 ± 2 kg/m3
same,mass density,"313.14 K, 4434 kPa",718.3 ± 2 kg/m3
same,mass density,"313.14 K, 4451 kPa",718.4 ± 2 kg/m3
same,mass density,"313.14 K, 4477 kPa",718.5 ± 2 kg/m3
same,mass density,"313.14 K, 4494 kPa",718.5 ± 2 kg/m3
same,mass density,"313.14 K, 4509 kPa",718.5 ± 2 kg/m3
